# Source: BindingDB's records for doi:10.1016/j.bmcl.2008.10.104 (Taisho Pharmaceutical, 2008)
# Residues, ends and D or L forms follow the SMILES beside them.
# How the values were obtained:
# [1] = target: Sodium- and chloride-dependent glycine transporter 2 (Rattus norvegicus) (UniProt P58295); test: Inhibition of [3H]glycine uptake at rat glycine transporter 2 expressed in african green monkey COS7 cells
# [2] = target: Sodium- and chloride-dependent glycine transporter 1 (Rattus norvegicus); test: Inhibition of [3H]glycine uptake at rat glycine transporter 1 expressed in african green monkey COS7 cells
# Sequence of Sodium- and chloride-dependent glycine transporter 2 (Rattus norvegicus) (P58295 whole entry, looked up): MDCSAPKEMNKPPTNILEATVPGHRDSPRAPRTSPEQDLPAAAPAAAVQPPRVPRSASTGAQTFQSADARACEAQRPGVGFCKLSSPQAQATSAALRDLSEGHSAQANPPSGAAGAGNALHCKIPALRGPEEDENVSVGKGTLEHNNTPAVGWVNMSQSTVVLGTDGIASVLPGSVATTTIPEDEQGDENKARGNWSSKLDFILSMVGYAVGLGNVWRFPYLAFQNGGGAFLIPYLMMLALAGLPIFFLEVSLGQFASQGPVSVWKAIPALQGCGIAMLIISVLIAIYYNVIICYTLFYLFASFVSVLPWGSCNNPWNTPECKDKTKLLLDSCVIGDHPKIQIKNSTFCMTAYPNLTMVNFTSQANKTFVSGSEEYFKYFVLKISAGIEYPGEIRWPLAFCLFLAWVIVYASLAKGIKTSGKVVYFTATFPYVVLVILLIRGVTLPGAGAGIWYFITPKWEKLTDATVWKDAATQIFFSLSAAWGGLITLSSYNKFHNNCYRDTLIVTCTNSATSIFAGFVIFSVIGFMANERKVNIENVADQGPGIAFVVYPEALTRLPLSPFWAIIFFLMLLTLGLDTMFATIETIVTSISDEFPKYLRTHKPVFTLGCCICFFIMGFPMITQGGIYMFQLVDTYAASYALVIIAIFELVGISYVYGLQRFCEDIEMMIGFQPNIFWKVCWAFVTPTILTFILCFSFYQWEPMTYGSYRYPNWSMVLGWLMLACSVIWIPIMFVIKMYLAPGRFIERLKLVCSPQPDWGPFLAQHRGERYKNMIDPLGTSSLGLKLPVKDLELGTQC
SMILES,IC50 [1] [nM],IC50 [2] [nM]
"CC[C@H](C)[C@@H]1NC(=O)[C@H](Cc2ccccc2)NC(=O)[C@H]([C@H](CS(=O)(=O)O)C(C)=O)NC(=O)[C@H]([C@@H](C)CC)NC1=O [(S)-2-((2S,5S,8S,11S)-5-benzyl-8,11-di-sec-butyl-3,6,9,12-tetraoxo-1,4,7,10-tetraazacyclododecan-2-yl)-3-oxobutane-1-sulfonic acid]",2260,20.4
N[C@@H](COC(c1cccc(F)c1)c1ccccc1OCc1ccccc1)C(=O)O (stereo partly drawn) [(2S)-2-amino-3-((2-(benzyloxy)phenyl)(3-fluorophenyl)methoxy)propanoic acid],21.1,–
"CC(C)[C@@H]1NC(=O)[C@H](Cc2ccccc2)NC(=O)[C@H]([C@H](C)[C@@H](C)O)NC(=O)[C@H](C(C)C)NC1=O [(3S,6S,9S,12S)-3-benzyl-6-((2S,3R)-3-hydroxybutan-2-yl)-9,12-diisopropyl-1,4,7,10-tetraazacyclododecane-2,5,8,11-tetraone]",542,11.1
"CC[C@H](C)[C@@H]1NC(=O)[C@H](Cc2ccccc2)NC(=O)[C@H]([C@@H](C)CC)NC(=O)[C@H]([C@@H](C)CC)NC1=O [(3S,6S,9S,12S)-3-benzyl-6,9,12-tri-sec-butyl-1,4,7,10-tetraazacyclododecane-2,5,8,11-tetraone] (cyclo(FIII))",226,–

# Results, then the compound that gave them:
IC50 [1] [nM],IC50 [2] [nM],SMILES
574,10.2,"CC[C@H](C)[C@@H]1NC(=O)[C@H](Cc2ccccc2)NC(=O)[C@H]([C@H](C)[C@@H](C)O)NC(=O)[C@H](C(C)C)NC1=O [(3S,6S,9S,12S)-3-benzyl-12-sec-butyl-6-((2S,3R)-3-hydroxybutan-2-yl)-9-isopropyl-1,4,7,10-tetraazacyclododecane-2,5,8,11-tetraone]"
278,3,"CC[C@H](C)[C@@H]1NC(=O)[C@H](Cc2ccccc2)NC(=O)[C@H]([C@H](C)[C@@H](C)O)NC(=O)[C@H]([C@@H](C)CC)NC1=O [(3S,6S,9S,12S)-3-benzyl-9,12-di-sec-butyl-6-((2S,3R)-3-hydroxybutan-2-yl)-1,4,7,10-tetraazacyclododecane-2,5,8,11-tetraone]"
450,–,"CC[C@H](C)[C@@H]1NC(=O)[C@H](C(C)C)NC(=O)[C@H](Cc2ccccc2)NC(=O)[C@H]([C@H](C)[C@@H](C)O)NC1=O [(3S,6S,9S,12S)-3-benzyl-9-sec-butyl-6-((2S,3R)-3-hydroxybutan-2-yl)-12-isopropyl-1,4,7,10-tetraazacyclododecane-2,5,8,11-tetraone]"
